# Source: patent US11612560B2, “Treatment of Raynaud's phenomenon by inhibition of transient receptor potential melastatin-8 (TRPM-8)” (The University of Toledo, priority 2015, dated 2023)
# Entries after “also recorded” stand apart in the source; their conditions may differ.
# Experiments:
# [1] = molecular target: T1, TRPM8 (Homo sapiens, UniProt Q7Z2W7); experiment: MVEC gene expression (ET1, NOS3, PTGIS mRNA) by qPCR after TRPM8 activation; format: cell-based
# T1 construct: Human MVEC express functional TRPM8; endogenous in cells; host or cells: human microvascular endothelial cells (normal MVEC and SSc-MVEC)
# Procedure: FIGS. 4A-4C: Effects of cold exposure on ET1 (FIG. 4A), NOS3 (FIG. 4B), and PTGIS (FIG. 4C) mRNA expression. Normal MVECs were exposed to 18° C. temperature for 1 hr. The mRNA expression levels were measured by qPCR.
# FIGS. 5A-5C: Effects of Menthol on ET1 (FIG. 5A), NOS3 (FIG. 5B), and PTGIS (FIG. 5C) mRNA expression. Normal endothelial cells were treated with menthol (MT) at 20 μM, 100 μM, and 500 μM with and without capsazepine (CapZ) for 24 hours. The mRNA expression levels were measured by qPCR.
# The effect of exposure of normal MVEC to […] on MVEC gene expression was evaluated. Specifically, gene expression levels of NOS3, PTGIS, and ET1 in MVEC were evaluated in response to TRPM8 activation by cold exposure (FIGS. 4A-4C) and menthol (FIGS. 5A-5C) with and without Capsazepine, which is one of the TRPM8 receptor inhibitors.
# Thus, the use of TRPM8 antagonists can be an effective strategy for treatment Raynaud's phenomenon in SSc patients.
# [2] = molecular target: T1, TRPM8; experiment: Intracellular calcium (Ca2+ influx) in MVEC, Fluo-4AM microfluorometry; format: cell-based
# Procedure: FIG. 2: Pharmacological activation of TRPM8 in human microvascular endothelial cells. […] ATP was used as the positive control.
# FIG. 3: Effects of menthol on intracellular calcium level in NL-MVECs and SSc-MVECs. Cells were loaded with 2 μM calcium indicator dye Fluo-4AM for 1 hour and treated with menthol with and without capsazepine for 10 minutes and then observed under microscope.
# To evaluate the functional role of TRPM8 in MVECs, the intracellular calcium ([Ca^2+]) influx into MVEC by Ca^2+ was evaluated by microfluorometry studies in response to the addition of menthol or exposure to cold, which are known to activate TRPM8 (FIG. 2).
# The effect of menthol is abrogated by the use of Capsazepine, a TRPM8 receptor inhibitor. These findings indicate that TRPM8 mediates functional effects in MVEC that are mediated by calcium influx, which is antagonized by the use of Capsazepine.
# [3] = Storage stability of capsazepine; format: physicochemical; settings: long term storage recommended at −20° C.
# [4] = system: patients with Raynaud's phenomenon; experiment: Cold challenge test with infrared thermography of digital blood flow after topical application; format: in vivo, human
# Excerpt: A FLIR thermography system (Wilsonville, Oreg.) was used to evaluate blood flow in the digits in response to a cold challenge test in addition to PPG. The advantage of combining the two modalities is that both (i) a dynamic assessment of blood flow in the hands as reflected by changes in temperature in response to cold challenge tests, as well as (ii) the ability to obtain single point measurements, can be achieved.
# FIGS. 8A-8B show the local application of econazole to the left index finger, and clotrimazole to the ring finger, for 15 minutes before cold exposure (FIG. 8A). […] Note the red color that depicts higher temperature of skin on the left index finger in the right panel of FIG. 8B.
# Gel formulations of 3% econazole and 3% clotrimazole were prepared, then applied to the index and ring fingers (respectively) of the left hand of patients with Raynaud's phenomenon. The topical application was left for 15 minutes on the fingers, before inducing Raynaud's phenomenon by a cold challenge test. The digital blood flow was analyzed by infrared thermography.
# [5] = activation of TRPM8 in MVEC by cold temperature or by menthol, qPCR
# T1 sequence (Q7Z2W7 whole entry): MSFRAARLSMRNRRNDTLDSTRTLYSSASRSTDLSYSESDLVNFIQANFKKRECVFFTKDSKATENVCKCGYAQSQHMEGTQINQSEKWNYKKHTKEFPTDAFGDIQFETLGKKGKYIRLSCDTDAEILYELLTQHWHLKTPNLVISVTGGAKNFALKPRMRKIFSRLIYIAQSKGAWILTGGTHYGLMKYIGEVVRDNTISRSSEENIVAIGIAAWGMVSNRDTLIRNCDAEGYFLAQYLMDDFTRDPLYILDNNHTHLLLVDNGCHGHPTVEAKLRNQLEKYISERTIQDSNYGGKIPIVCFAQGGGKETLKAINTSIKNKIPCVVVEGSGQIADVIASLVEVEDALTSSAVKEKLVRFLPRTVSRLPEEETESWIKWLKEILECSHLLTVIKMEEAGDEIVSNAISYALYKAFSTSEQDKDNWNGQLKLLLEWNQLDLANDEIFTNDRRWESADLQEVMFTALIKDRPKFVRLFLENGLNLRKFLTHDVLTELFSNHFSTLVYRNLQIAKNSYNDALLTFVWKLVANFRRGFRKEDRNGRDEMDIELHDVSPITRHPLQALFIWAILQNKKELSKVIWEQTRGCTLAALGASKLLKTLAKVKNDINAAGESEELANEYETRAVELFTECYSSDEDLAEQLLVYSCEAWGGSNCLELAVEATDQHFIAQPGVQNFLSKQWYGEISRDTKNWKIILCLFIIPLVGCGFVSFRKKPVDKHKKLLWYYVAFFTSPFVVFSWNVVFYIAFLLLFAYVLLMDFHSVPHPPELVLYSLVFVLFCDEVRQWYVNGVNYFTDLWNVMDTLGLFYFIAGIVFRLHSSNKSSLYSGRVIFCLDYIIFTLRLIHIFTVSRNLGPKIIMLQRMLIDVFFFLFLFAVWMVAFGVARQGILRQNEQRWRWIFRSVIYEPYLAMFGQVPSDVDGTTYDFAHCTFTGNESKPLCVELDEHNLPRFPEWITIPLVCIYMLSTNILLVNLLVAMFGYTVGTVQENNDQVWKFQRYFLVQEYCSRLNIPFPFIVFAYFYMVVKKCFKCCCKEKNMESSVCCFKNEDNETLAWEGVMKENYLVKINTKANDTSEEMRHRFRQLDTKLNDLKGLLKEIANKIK
structure (smiles),measurement,setting,value
Oc1cc2c(cc1O)CN(C(=S)NCCc1ccc(Cl)cc1)CCC2 [capsazepine],"effect on cold/menthol-induced changes of ET1, NOS3 and PTGIS expression","[1]; MVEC, addition of TRPM8 antagonist",normalization of gene expression levels; also recorded: reversed; also recorded: near normalization
same,effect on menthol-induced intracellular calcium increase,"[2]; menthol with capsazepine, 10 minutes, NL-MVECs and SSc-MVECs",abrogated
same,stability at room temperature,[3],not stable at room temperature
Clc1ccc(COC(Cn2ccnc2)c2ccc(Cl)cc2Cl)cc1 (centres unmarked) [econazole],cold induced decrease in blood flow to the fingers,"[4]; 3% gel on left index finger, 15 minutes before cold challenge, infrared thermography",prevented the cold induced decrease in blood flow
same,subjective feeling of finger coldness by patient report,[4]; after topical application and cold challenge,less finger coldness
same,finger temperature in thermal image after cold exposure,[4]; local application to left index finger for 15 minutes before cold exposure,warmer than the other fingers
CC1CCC(C(C)C)C(O)C1 (centres unmarked) [menthol],NOS3 expression reduction,[1]; [5],62%
same,PTGIS expression reduction,[1]; [5],61%
same,increase in expression of ET1,[1]; [5],2.4 folds
same,Ca2+ influx in MVEC,"[2]; 500 μM/L menthol, human microvascular endothelial cells",increase in Ca^2+ influx
same,intracellular calcium levels,"[2]; SSc MVEC and healthy MVEC, Fluo-4AM, 10 minutes",increases intracellular calcium levels
